Columns and labels:
Assay type in all cases: in vivo, Swiss albino mice
DAL [1] = assay: Dead cell count of DAL ascitic fluid in mice
Method: (§1) The extracts used were in the form of suspension with tween-20 (one part by volume) and distilled water (two parts by volume). The prepared extracts were also used for further studies. Animals used for studies were Swiss albino mice. Six experiments were carried for each plant extract.
(§2) After development of tumor the drug treatment was given on the 9th day and the 18th day post tumor inoculation. The peritoneal fluid was collected once on the 11th day and 20th day from each mouse and the following parameters were examined in antitumor assessment:
Ascitic fluid for cell cytology, specifically dead cell count and histopathology.
(§3) Statistical analysis: The data for anti-tumor activity was analyzed by one-way ANOVA followed by Dunnett's ‘t’ test. P<0.05 was considered statistically significant.

DAL [2] = assay: Hematological parameters in DAL-bearing mice; details: 5-FU 12.5 mg/kg p.o., extracts 300 mg/kg p.o.
Method: The extracts used were in the form of suspension with tween-20 (one part by volume) and distilled water (two parts by volume). The prepared extracts were also used for further studies. Animals used for studies were Swiss albino mice. Six experiments were carried for each plant extract. After development of tumor the drug treatment was given on the 9th day and the 18th day post tumor inoculation. […] Hematological parameters, such as WBC, RBC, Hb, differential Leucocyte count; Statistical analysis: The data for anti-tumor activity was analyzed by one-way ANOVA followed by Dunnett's ‘t’ test. P<0.05 was considered statistically significant.

DAL [3] = assay: Mean survival time (MST) in DAL-bearing mice
Method: as §1, §2
Mean Survival time (MST);
as §3

DAL [4] = assay: Body weight (tumor volume) of DAL-bearing mice; details: for body weight: mean of six experiments
Method: as §1, §2
Body weight (tumor volume). All parameters were examined with standard procedures.

O=c1[nH]cc(F)c(=O)[nH]1 [5-FU, 5-Fluorouracil]
% of dead cells (DAL [1]; 11th day): 35% | % protection against tumor (DAL [1]; 11th day): 52% | % of dead cells (DAL [1]; 20th day): 51% | % protection against tumor (DAL [1]; 20th day): 54.54% | Hb g/dl ± SEM (DAL [2]; Day 11): 5.8 ± 0.98 g/dL | Lymphocytes ± SEM (DAL [2]; Day 11): 48 ± 0.41 | Monocytes (DAL [2]; Day 11): 2 | Neutrophils ± SEM (DAL [2]; Day 11): 56 ± 0.82 | RBC × 10^6 ± SEM (DAL [2]; Day 11): 2.20 ± 0.08 × 10^6 | Hb g/dl ± SEM (DAL [2]; Day 20): 7.2 ± 0.04 g/dL | Lymphocytes ± SEM (DAL [2]; Day 20): 54.98 ± 0.81 | Monocytes (DAL [2]; Day 20): 2 | Neutrophils ± SEM (DAL [2]; Day 20): 34.98 ± 0.03 | RBC × 10^6 ± SEM (DAL [2]; Day 20): 2.61 ± 0.03 × 10^6 | WBC ± SEM (DAL [2]; Day 20): 11,600 ± 2.03 | No. of Days Alive ± SEM (DAL [3]; DAL-bearing mice): 26 ± 0.24 days | Mean Survival time (%) (DAL [3]; tumor control (DAL) = 100): 110% | % increase in body weight on 20th day post-tumor inoculation (DAL [4]; 20th day post-tumor inoculation): 32.08% | body weight (DAL [4]; day 9 post tumor inoculation): 22.33 grams | body weight (DAL [4]; day 10 post tumor inoculation): 22.33 grams | body weight (DAL [4]; day 11 post tumor inoculation): 22.66 grams | body weight (DAL [4]; day 12 post tumor inoculation): 23 grams | body weight (DAL [4]; day 13 post tumor inoculation): 26.33 grams | body weight (DAL [4]; day 14 post tumor inoculation): 27 grams | body weight (DAL [4]; day 15 post tumor inoculation): 28.66 grams | body weight (DAL [4]; day 18 post tumor inoculation): 30 grams | body weight (DAL [4]; day 20 post tumor inoculation): 30 grams | body weight (DAL [4]; day 21 post tumor inoculation): 30 grams | body weight (DAL [4]; day 24 post tumor inoculation): 30 grams

Reference: patent US20170119833A1, “ACANTHOSPERMUM HISPIDUM COMPOSITION FOR THE TREATMENT OF CANCER AND METHODS FOR ITS MANUFACTURE” (priority 2014, published 2017)
